Here are results for 1 molecule from patent US7098241B2, “Thiophene hydroxamic acid derivatives” (Hoffmann-La Roche Inc., priority 2002, dated 2006).

In test [1] the test system is HT-29 cells (human colon carcinoma cell line). The experiment in a line: MTT anti-proliferation assay on HT-29 cells. In kind it is cell-based. Particulars: Homo sapiens, 120 h, 384 well plates, 5 days, read-out: IC50 HT29 384. An excerpt:
MTT (3-(4,5-dimethylthiazol-2-yl)-2,5-diphenyl tetrazolium bromide) is widely used for the quantitative determination of cytotoxic effects or in vitro chemosensitivity of tumor cells. The assay is based on the cleavage of the yellow tetrazolium salt (MTT) to purple formazan crystals by metabolic active cells. For details, see Rubinstein, L. V., et al., J. Natl. Cancer Inst. 82 (1990) 1113.
We proceeded as follows: HT-29 cells (human colon carcinoma cell line) were cultivated in RPMI 1640, 2.5% FCS, 2 mM glutamine, 100 u/ml penicillin, 100 ug/ml streptomycin. For the assay the cells were seeded in 384 well plates, 900 cells per well, in the same medium. At the next day, the compounds (dissolved 10 mM in DMSO) were added in various concentrations ranging from 30 uM to 1.5 nM. After 5 days, the MTT assay was done mainly according to the instructions of the manufacturer (Cell proliferation kit I, MTT, from Roche Molecular Biochemicals). In brief: MTT labeling reagent was added to a final concentration of 0.5 mg/ml, added and incubated for 4 hrs at 37° C., 5% CO2. During this incubation time purple formazan crystals are formed. After addition of the solubilization solution (20% SDS in 0.02 M HCl) the plates were incubated overnight at 37° C., 5% CO2. After careful mixing, the plates were measured in Victor 2 (scanning multiwell spectrophotometer, Wallac) at 550 nm.
A decrease in number of living cells results in a decrease in the total metabolic activity in the sample. The decrease directly correlates to the amount of purple color resulting from the solubilization of the purple formazan crystals. Determination of IC50 was done using XL-fit.

The test system of test [2] is PC-3 prostate carcinoma cells xenograft. The experiment in a line: Antitumor activity in a PC-3 xenograft model. The format is in vivo, NMRI nude mice. To be noted: 15 days of treatment over 19 days, vs vehicle group. The method, then: Determination of Antitumor Activity in a PC-3 Xenograft Model
PC-3 prostate carcinoma cells were originally obtained from the NCI collection and were deposited after expansion in the Roche cell bank Penzberg. Tumor cell line was routinely cultured in RPMI 1640 Medium containing 10% FBS and 2 mM L-glutamine at 37° C. in a water-saturated atmosphere at 5% CO2. Culture passage was performed with trypsin/EDTA 1× (Roche Diagnostics) splitting twice a week. Cell passage 3 was used in the present study.
At the day of cell injection, cells were harvested from culture flasks (Greiner T 75), transferred into 50 ml culture medium, washed once and resuspended in PBS. After an additional washing with PBS, the final cell titer was measured with a Neubauer-Chamber. The tumor cell suspension (PBS) was vortexed carefully (to reduce cell aggregation) and kept on ice. The cell suspension was filled into a 1.0 ml syringe. To generate primary tumors, 2×10^6 PC-3 tumor cells in a volume of 100 μl PBS were injected subcutaneously into the right flank of each mouse (NMRI nude mice). After s.c. inoculation of tumor cells, measurable tumors developed in all animals. Mice were staged and randomized on day 10 according to the primary tumor dimensions. 15 days daily oral dosing was carried out using the compound of example 1 and compound 3 of WO 93/07148, WO 95/31977, U.S. Pat. No. 5,369,108 as test article. 90 male NMRI nude mice were divided into 6 study groups. Each group consisted of 15 male animals. The individual groups were given the test article, formulated as microsuspensions in 7.5% modified gelatin with 0.22% NaCl solution, once daily by oral route over 19 days (3 cycles of 5 days treatment and a 2-day drug free period each). The application volume was 10 ml/kg. The oral doses chosen were 25, 50, 100, and 200 mg/kg of example 1 and 200 mg/kg of compound 3 of patent '108. The study was terminated on day 28 after tumor cell injection when the vehicle group reached the termination criteria.

`C[C@@H](NC(=O)c1ccc(C(=O)NO)s1)c1ccccc1` [Example 1, (R)-thiophene-2,5-dicarboxylic acid 2-hydroxyamide 5-[(1-phenyl-ethyl)-amide]]: the 50% inhibitory concentration (IC50) in test [1] is 170 nM. Further, the tumor weight inhibition in test [2] (25 mg/kg oral once daily) worked out at 15%; in test [2] (50 mg/kg oral once daily) it was 36%; in test [2] (100 mg/kg oral once daily) it was 51%; in test [2] (200 mg/kg oral once daily), 81%.

The term IC50 denotes the point on the concentration scale where inhibition reaches its midpoint.
